Laboratory results: patent US6054432A, “Means for treating prostate hypertrophy and prostate cancer” (Asta Medica Aktiengesellschaft, priority 1997, dated 2000)
Non-standard residues stand in square brackets, D forms with d. Residues, ends and D or L forms follow the SMILES beside them. dPhe(4-Cl) = N[C@H](Cc1ccc(Cl)cc1)C(=O)O; d2Nal = N[C@H](Cc1ccc2ccccc2c1)C(=O)O; dCit = NC(=O)NCCC[C@@H](N)C(=O)O; d3Pal = N[C@H](Cc1cccnc1)C(=O)O

Assays:
[1] = tested on: BPH patients; details: 500 μg every 12 hours for 4 weeks, cited from earlier work
[2] = tested on: benign prostate hypertrophy (BPH) patients; test: Clinical therapy of BPH with Cetrorelix (Example 1); assay type: in vivo, human; details: 4 to 8 weeks therapy regimen
Experimental: Cetrorelix is administered in a dose of 0.5 mg to 2 mg daily for 4 to 8 weeks for the therapy of BPH. A dose of 5 mg to 30 mg, dispensed once per week or every 10 days also over a time period of 4 to 8 weeks as well as one every two weeks or one injection per month of 20 mg to 60 mg can also decisively improve the clinical symptoms and signs. […] The prostate volume decreases by 20 to 40% during the treatment time of 4 to 8 weeks. […] In addition, at least 30% of the patients achieve an improvement of the urine flow of 6 ml/sec with this therapy. This is almost equivalent to an improvement like that associated with the golden standard operation, and in considerably shorter time. […] These clinical benefits continue for at least 3 to 6 months after therapy. This allows a long-term therapy of BPH with only an intermittent treatment of 2 to max. 4 injection cycles over 4 to 8 weeks.
This therapy represents a significant therapeutic advance in the treatment of BPH since it not only achieves an improvement of the clinical symptoms of BPH but also a diminution of the prostate and an improvement of the urine flow like those associated with surgery The protocols of the invention avoid the negative consequences of an operation, e.g. urine incontinence, retrograde ejaculation, blood loss with the consequence of blood transfusions and also the risks of infection associated with surgery.

[3] = tested on: prostate carcinoma patients; details: cited from earlier work
[4] = 500 μg every 12 hours, end of the 6 weeks of therapy

CC(=O)N[C@H](Cc1ccc2ccccc2c1)C(=O)N[C@H](Cc1ccc(Cl)cc1)C(=O)N[C@H](Cc1cccnc1)C(=O)N[C@@H](CO)C(=O)N[C@@H](Cc1ccc(O)cc1)C(=O)N[C@H](CCCNC(N)=O)C(=O)N[C@@H](CC(C)C)C(=O)N[C@@H](CCCNC(=N)N)C(=O)N1CCC[C@H]1C(=O)N[C@H](C)C(N)=O [Cetrorelix] (Ac-[d2Nal][dPhe(4-Cl)][d3Pal]SY[dCit]LRP[dA]-NH2)
testosterone levels during treatment ([1]; BPH patients, no castration values during the last three weeks): fluctuated at subnormal levels | testosterone levels, initially ([1]; all patients, initial phase): lowering in testosterone levels to a castration level | prostate volume [1]: distinct decrease | symptoms of dysuria [1]: distinct decrease | patients achieving an improvement of the urine flow of 6 ml/sec [2]: at least 30% | quality of life [2]: significant improvements | sexual performance [2]: No limitations in sexual performance are observed | testosterone level [2]: Submaximal decreases of testosterone occur, but these are above those levels associated with castration | increase of the peak flow of the urine ([2]; comparable to the α-blockers): approximately 3 ml/sec | testosterone levels, initially ([3]; 500 μg every 12 hours for 6 weeks, all patients, initial phase): lowering in testosterone levels to a castration level | overall condition of the patient [3, 4]: considerable improvement | testosterone values at the end of therapy [3, 4]: at the castration levels
